Test results taken from patent publication US12636293B2, “Methods of treating charcot-marie-tooth disease” (CMTx Biotech Inc., priority 2019, dated 2026).

Legend:
[1] = dose of about 10 to about 20 mg/day; cited from earlier work
[2] = system: Charcot Marie Tooth Disease symptoms (neuropathic pain); experiment: Case of a subject with Charcot Marie Tooth Disease treated with sub-antimicrobial dose doxycycline; type: in vivo, human
Procedure: The subject described the pain during the daytime hours as a 2/10 and during the evening hours as a 6/10, and experienced this pain consistently for the prior 10 years. The subject began taking a sub-antimicrobial dose of doxycycline, i.e., 20 mg twice daily (i.e. Periostat®). […] Throughout the treatment period, the subject described the pain during daytime hours as a 1/10, and during the evening hours also as a 1/10. […] Within 1 week of discontinuing twice-daily sub-antimicrobial dose doxycycline treatment, the subject experienced a return of the neuropathic pain in a sporadic manner.

SMILES	plasma concentrations in humans [1]	adverse events ([2]; 20 mg twice daily for a period of 12 weeks)	time to return of neuropathic pain (sporadic) after discontinuing treatment ([2]; after 12 weeks of 20 mg twice daily) [week]	pain during daytime hours (subject's description) ([2]; person with CMTD, 20 mg twice daily, throughout the treatment period (12 weeks), before treatment 2/10)	pain during the evening hours (subject's description) ([2]; person with CMTD, 20 mg twice daily, throughout the treatment period (12 weeks), before treatment 6/10)
NC(=O)C1=C(O)C[C@@H]2C[C@@H]3Cc4cccc(O)c4C(=O)C3=C(O)[C@]2(O)C1=O [CMT-3, 6-demethyl-6-deoxy-4-dedimethylaminotetracycline]	about 1.0 μg/ml				
C[C@H]1c2cccc(O)c2C(=O)C2=C(O)[C@]3(O)C(=O)C(C(N)=O)=C(O)[C@@H](N(C)C)[C@@H]3[C@@H](O)[C@@H]21 [doxycycline, 6α-deoxy-5-hydroxytetracycline]		no adverse events were observed	≤ 1	1/10	1/10
